How the values were obtained:
[1] = tested on: Bex4 expression in Xa cell line; assay: Bex4 expression and site 1 methylation in Xa hybrid cell line after inhibitor treatment; type: cell-based; settings: for Bex4 expression / transcription: Xa (active X) hybrid cell line, various concentrations
Method: To determine if methylation of site 1 controlled Bex4 expression in the Xa cell line, cells were treated with various concentrations of the methyltransferase inhibitor 5-aza-2′ deoxycytidine (5-aza-dC). […] Epigenetic inactivation Bex4 in Xa was specific, since two genes flanking Bex4, namely Bex3/NADE and pp21 homolog, were expressed in Xa.

[2] = tested on: Bex4 transcription in OV202 cells; assay: Bex4 transcription (RT-PCR) in OV202 cells after 5-aza-2′-deoxycytidine treatment; type: cell-based, human; settings: OV202 cells, 0, 1, 5, or 10 μM, 48 hours, PCR with Bex4 specific primers
Method: To determine if hypermethylation is responsible for inactivation of Bex4 expression in OvCa cell lines, OV202 cells were treated with 0, 1, 5, or 10 μM 5-aza-2′-deoxycytidine (a DNA methyltransferase inhibitor) for 48 hours. RNA was extracted, reverse transcribed, and analyzed by PCR using Bex4 specific primers.

[3] = tested on: Bex4 transcription in OV207; assay: Bex4 transcription in OV207 cells after 5-aza-dC treatment; type: cell-based, human; settings: OV207 cell line
Source text: Methylation at site 1 in these samples was associated with loss of Bex4 expression, as evidenced by semi-quantitative RT-PCR.

Compound | methylation of site 1 (bisulfite-modified DNA) ([1]; 5-aza-dC treated Xa cells) | Bex4 expression / transcription [1] | transcription of Bex4 [2] | Bex4 transcription [3]
Nc1ncn([C@H]2C[C@H](O)[C@@H](CO)O2)c(=O)n1 [5-aza-2′-deoxycytidine] | demethylation of site 1 | dose-dependent increase | dose dependant increase | induced Bex4 transcription
CC(/C=C/C(=O)NO)=C\[C@@H](C)C(=O)c1ccc(N(C)C)cc1 [Trichostatin A, trichostatin A] |  | did not affect |  | 
